According to patent EP0583821A1, “Atriopeptins, guanylate cyclase activators, and phosphodiesterase inhibitors as treatment for glaucoma, hydrocephalus and cerebral edema (cranial fluid volume dysfunction)” (THE GENERAL HOSPITAL CORPORATION, priority 1987, dated 1988):

Target: T1, guanylate cyclase (Oryctolagus cuniculus, UniProt G1TXB5)
T1 sequence (G1TXB5 28-1056): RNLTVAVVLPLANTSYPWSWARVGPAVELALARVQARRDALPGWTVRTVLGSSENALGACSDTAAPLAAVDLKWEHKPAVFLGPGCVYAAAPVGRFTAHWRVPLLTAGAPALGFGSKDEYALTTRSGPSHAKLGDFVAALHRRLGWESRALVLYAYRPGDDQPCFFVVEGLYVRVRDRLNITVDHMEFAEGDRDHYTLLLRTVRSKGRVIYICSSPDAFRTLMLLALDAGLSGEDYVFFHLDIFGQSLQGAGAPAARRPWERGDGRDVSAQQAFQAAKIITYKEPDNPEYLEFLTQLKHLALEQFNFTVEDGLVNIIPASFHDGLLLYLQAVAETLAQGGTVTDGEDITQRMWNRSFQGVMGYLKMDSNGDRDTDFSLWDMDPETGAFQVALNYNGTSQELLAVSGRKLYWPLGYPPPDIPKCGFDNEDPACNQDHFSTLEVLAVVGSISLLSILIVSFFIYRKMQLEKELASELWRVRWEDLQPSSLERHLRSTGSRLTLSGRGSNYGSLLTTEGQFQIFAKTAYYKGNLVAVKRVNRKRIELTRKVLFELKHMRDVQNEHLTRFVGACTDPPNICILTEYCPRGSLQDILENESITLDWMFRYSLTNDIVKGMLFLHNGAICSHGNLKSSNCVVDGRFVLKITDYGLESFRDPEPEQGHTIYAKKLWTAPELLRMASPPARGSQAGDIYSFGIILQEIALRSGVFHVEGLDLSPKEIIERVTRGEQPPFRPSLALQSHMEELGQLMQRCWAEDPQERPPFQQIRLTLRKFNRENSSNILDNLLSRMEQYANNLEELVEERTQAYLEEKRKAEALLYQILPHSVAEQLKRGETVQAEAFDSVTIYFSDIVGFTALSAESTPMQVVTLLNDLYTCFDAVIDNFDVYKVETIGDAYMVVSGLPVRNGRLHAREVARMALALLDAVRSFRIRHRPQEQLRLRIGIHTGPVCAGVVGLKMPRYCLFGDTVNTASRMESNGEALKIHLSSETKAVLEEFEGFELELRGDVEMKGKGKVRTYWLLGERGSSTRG
Assay: Atriopeptin-activated guanylate cyclase in kidney membrane (P1) fractions
Type: biochemical, rabbit
Parameters: tissues were homogenized (10 mg wet weight per milliliter); from tissue; host or cells: rabbit cerebral microvessels, choroid plexus, kidney, ciliary process, pia-arachnoid, cerebellum; 100,000 g P1 pellet
Settings: mean ± range of duplicate determinations
Procedure: The effect of rANP on membrane-bound guanylate cyclase and adenylate cyclase activity in various brain-barrier tissues and tissue fractions from rabbit was compared with its activity in cerebrum and cerebellum. Guanylate cyclase was measured as the rate of cyclic GMP formation by modifications of the technique of Waldman et al., supra, incorporated herein by reference. Briefly, tissues were homogenized (10 mg wet weight per milliliter) in 50 mM tris-HCl, pH 8.0, 1 mM EDTA, 1 mM dithiothreitol, and 250 mM sucrose and centrifuged at 100,000g to obtain a P1 pellet. Reaction tubes contained (in 0.3 ml), 50 mM tris, pH 7.6, 6 mM MnCl₂, 0.5 mM 3-isobutyl, 1-methylxanthine (IBMX), 10 mM theophylline, 3 mM GTP, hormone (in 0.03 ml containing 2.5 mM ascorbic acid and 0.1% bovine serum albumin), and 0.06 ml of P1 fraction (40 to 60 ug of protein). The reaction (4 minutes at 30°C) was started by addition of GTP and terminated by addition of 0.3 ml of 150 mM sodium acetate (pH 4.0) and boiling for 3 minutes. Cyclic GMP formed was subsequently measured by radioimmunoassay as described in example 6, infra. Under these conditions, guanylate cyclase activity was linear with time and tissue concentration. Adenylate cyclase activity in P1 fractions was measured according to the method described by Nathanson, et al., Science; 204:843 (1979); Mol. Pharmacol. 18:199 (1980), see Figure 1C . […] Neurosci. Abstr., 10, 899 (1984); Nathanson, et al., Soc. Neurosci. Abstr., 12, 1257 (1986), incorporated herein by reference, but with a lower concentration (0.025%) of trypsin and a rotating tissue tumbler which allowed cleaner fractionation of epithelial cells from erythrocytes and vascular components.
Ciliary process tips were obtained from male, 3-4 kg, New Zealand white rabbits, immediately following sacrifice with an overdose of ether, as described in Nathanson, Invest. Ophthal. Vis. Sci., 21:7981 (1982). […]
Atriopeptin-activated guanylate cyclase activity was measured as the rate of conversion of GTP to cyclic GMP. […]

Substance | Vmax Stimulation (%) of Guanylate Cyclase Kidney [%]
Ser-Leu-Arg-Arg-atriopeptin III (APIII) [rANP 1-28] | 129 ± 25
rANP 13-28 (DRIGAQSGLGCNSFRY; Atrial natriuretic peptide; UniProt P01161 135-150, looked up, fragment) | 54 ± 4
